How the values were obtained:
[1] = system: Human immunodeficiency virus 1; test: Antiviral activity against wild type HIV-1 IIIB infected in human MT4 cells assessed as protection against virus-induced cytopathic effect incubated for 5 days by MTT assay; type: functional, organism-based; settings: Human immunodeficiency virus 1, IIIB, MT4, 120 h
[2] = Cytotoxicity against human MT4 cells assessed as reduction in cell viability incubated for 5 days by MTT assay; type: toxicity, cell-based; settings: time 5 day
[3] = Selectivity index, ratio of CC50 for cytotoxicity against human MT4 cells assessed as reduction in cell viability to EC50 for antiviral activity against human MT4 cells assessed as protection against virus-induced cytopathic effect; type: toxicity, cell-based; settings: read-out: Ratio CC50/EC50
[4] = system: Human immunodeficiency virus 1; test: Antiviral activity against NNRTI-resistant HIV-1 harboring L100I mutant infected in human MT4 cells assessed as protection against virus-induced cytopathic effect incubated for 5 days by MTT assay; type: functional, organism-based; settings: Human immunodeficiency virus 1, MT4, 120 h
[5] = system: Human immunodeficiency virus 1; test: Antiviral activity against NNRTI-resistant HIV-1 harboring K103N mutant infected in human MT4 cells assessed as protection against virus-induced cytopathic effect incubated for 5 days by MTT assay; type: functional, organism-based; settings: Human immunodeficiency virus 1, MT4, 120 h
[6] = system: Human immunodeficiency virus 1; test: Antiviral activity against NNRTI-resistant HIV-1 harboring Y181C mutant infected in human MT4 cells assessed as protection against virus-induced cytopathic effect incubated for 5 days by MTT assay; type: functional, organism-based; settings: Human immunodeficiency virus 1, MT4, 120 h
[7] = system: Human immunodeficiency virus 1; test: Antiviral activity against NNRTI-resistant HIV-1 harboring Y188L mutant infected in human MT4 cells assessed as protection against virus-induced cytopathic effect incubated for 5 days by MTT assay; type: functional, organism-based; settings: Human immunodeficiency virus 1, MT4, 120 h
[8] = system: Human immunodeficiency virus 1; test: Antiviral activity against NNRTI-resistant HIV-1 harboring E138K mutant infected in human MT4 cells assessed as protection against virus-induced cytopathic effect incubated for 5 days by MTT assay; type: functional, organism-based; settings: Human immunodeficiency virus 1, MT4, 120 h
[9] = system: Human immunodeficiency virus 1; test: Antiviral activity against NNRTI-resistant HIV-1 harboring F227L/V106A double mutant infected in human MT4 cells assessed as protection against virus-induced cytopathic effect incubated for 5 days by MTT assay; type: functional, organism-based; settings: Human immunodeficiency virus 1, MT4, 120 h
[10] = system: Human immunodeficiency virus 1; test: Antiviral activity against NNRTI-resistant HIV-1 harboring RES056 mutant infected in human MT4 cells assessed as protection against virus-induced cytopathic effect incubated for 5 days by MTT assay; type: functional, organism-based; settings: Human immunodeficiency virus 1, MT4, 120 h
[11] = target: Human immunodeficiency virus type 1 reverse transcriptase (Human immunodeficiency virus 1, UniProt Q72547); test: Inhibition of wild type HIV-1 reverse transcriptase assessed as reduction in biotin-dUTP incorporation in cDNA preincubated with compound for 1 hr in presence of biotin-labeled dNTPs by ELISA
[12] = system: Human immunodeficiency virus 1; test: Potency index, ratio of efavirenz EC50 to test compound EC50 for antiviral activity against NNRTI-resistant HIV-1 harboring L100I mutant infected in human MT4 cells assessed as protection against virus-induced cytopathic effect incubated for 5 days by MTT assay; type: functional; settings: time 5 day
[13] = system: Human immunodeficiency virus 1; test: Potency index, ratio of efavirenz EC50 to test compound EC50 for antiviral activity against NNRTI-resistant HIV-1 harboring K103N mutant infected in human MT4 cells assessed as protection against virus-induced cytopathic effect incubated for 5 days by MTT assay; type: functional; settings: time 5 day
[14] = system: Human immunodeficiency virus 1; test: Potency index, ratio of efavirenz EC50 to test compound EC50 for antiviral activity against NNRTI-resistant HIV-1 harboring F227L/V106A double mutant infected in human MT4 cells assessed as protection against virus-induced cytopathic effect incubated for 5 days by MTT assay; type: functional; settings: time 5 day

Structure (SMILES)	EC50 [1] [µM]	CC50 at 120 h [2] [µM]	selectivity ratio [3]	EC50 [4] [µM]	EC50 [5] [µM]	EC50 [6] [µM]	EC50 [7] [µM]	EC50 [8] [µM]	EC50 [9] [µM]	EC50 [10] [µM]	IC50 [11] [µM]	Ratio EC50 [12]	Ratio EC50 [13]	Ratio EC50 [14]
Cc1cc(/C=C/C#N)cc(C)c1Oc1nc(Nc2ccc(N3CCN(S(C)(=O)=O)CC3)c(F)c2)ncc1-c1cnc(F)nc1	0.0063	0.6	95											
Cc1cc(/C=C/C#N)cc(C)c1Oc1nc(Nc2ccc(N3CCN(S(C)(=O)=O)CC3)c(C#N)c2)ncc1-c1cnc(F)nc1	0.039	30.9	784											
Cc1cc(/C=C/C#N)cc(C)c1Oc1nc(Nc2ccc(N3CCN(S(C)(=O)=O)CC3)c(F)c2)ncc1-c1cnc(N)nc1	0.0073	6.7	918											
Cc1cc(/C=C/C#N)cc(C)c1Oc1nc(Nc2ccc(N3CCS(=O)(=O)CC3)c(C#N)c2)ncc1-c1ccc(N)nc1	0.041	0.7	16											
Cc1cc(/C=C/C#N)cc(C)c1Oc1nc(Nc2ccc(N3CCS(=O)(=O)CC3)c(F)c2)ncc1-c1cnc(F)nc1	0.013	28.8	2270	0.051	0.013	0.12	6.5	0.055	0.21	1.59	0.35			
Cc1cc(/C=C/C#N)cc(C)c1Oc1nc(Nc2ccc(N3CCS(=O)(=O)CC3)c(C#N)c2)ncc1-c1cnc(N)nc1	0.031	0.8	22											
Cc1cc(/C=C/C#N)cc(C)c1Oc1nc(Nc2ccc(N3CCN(S(C)(=O)=O)CC3)c(C#N)c2)ncc1-c1ccc(N)nc1	0.0064	161	25300	0.0094	0.0062	0.034	0.25	0.03	0.03	0.21	0.41	3.7	12.6	7
Cc1cc(/C=C/C#N)cc(C)c1Oc1nc(Nc2ccc(N3CCN(S(C)(=O)=O)CC3)c(F)c2)ncc1-c1ccc(N)nc1	0.0058	75.6	13000	0.043	0.0066	0.18	0.7	0.0298	0.18	0.1	0.27			
Cc1cc(/C=C/C#N)cc(C)c1Oc1nc(Nc2ccc(N3CCN(S(C)(=O)=O)CC3)c(C#N)c2)ncc1-c1ccc(F)nc1	0.026	> 200	> 7620											
Cc1cc(/C=C/C#N)cc(C)c1Oc1nc(Nc2ccc(N3CCS(=O)(=O)CC3)c(C#N)c2)ncc1-c1ccc(F)nc1	0.027	> 210	> 7830											
Cc1cc(/C=C/C#N)cc(C)c1Oc1nc(Nc2ccc(N3CCN(S(C)(=O)=O)CC3)c(C#N)c2)ncc1-c1cncnc1	0.0085	> 206	> 24200	0.039	0.013	0.099	0.89	0.049	0.19	0.77	0.29			
Cc1cc(/C=C/C#N)cc(C)c1Oc1nc(Nc2ccc(N3CCS(=O)(=O)CC3)c(F)c2)ncc1-c1cccnc1	0.017	82.8	4850	0.13	0.012	0.38	1.56	0.064	0.42	4.52				
Cc1cc(/C=C/C#N)cc(C)c1Oc1nc(Nc2ccc(N3CCS(=O)(=O)CC3)c(F)c2)ncc1-c1cncnc1	0.0054	> 219	> 40500	0.09	0.0067	0.17	1.27	0.053	0.28	1.35	0.2			
Cc1cc(/C=C/C#N)cc(C)c1Oc1nc(Nc2ccc(N3CCS(=O)(=O)CC3)c(F)c2)ncc1-c1cnc(N)nc1	0.006	1	156											
Cc1cc(/C=C/C#N)cc(C)c1Oc1nc(Nc2ccc(N3CCN(S(C)(=O)=O)CC3)c(F)c2)ncc1-c1ccc(F)nc1	0.017	> 202	> 11600	0.14	0.034	0.46	4.54	0.051	0.35	8.28				
Cc1cc(/C=C/C#N)cc(C)c1Oc1nc(Nc2ccc(N3CCN(S(C)(=O)=O)CC3)c(C#N)c2)ncc1-c1cccnc1	0.0079	179	22700	0.048	0.011	0.15	0.55	0.037	0.23	0.8	0.33			
Cc1cc(/C=C/C#N)cc(C)c1Oc1nc(Nc2ccc(N3CCN(S(C)(=O)=O)CC3)c(F)c2)ncc1-c1cccnc1	0.019	> 41.7	> 2140	0.23	0.024	0.4	2.03	0.057	0.64	3.74	0.63			
Cc1cc(/C=C/C#N)cc(C)c1Oc1nc(Nc2ccc(N3CCN(S(C)(=O)=O)CC3)c(F)c2)ncc1-c1cncnc1	0.016	> 208	> 12900	0.11	0.028	0.2	2.2	0.096	0.313	1.16	0.49			
Cc1cc(/C=C/C#N)cc(C)c1Oc1nc(Nc2ccc(N3CCS(=O)(=O)CC3)c(C#N)c2)ncc1-c1cnc(F)nc1	0.22	23.9	110											
Cc1cc(/C=C/C#N)cc(C)c1Oc1nc(Nc2ccc(N3CCS(=O)(=O)CC3)c(F)c2)ncc1-c1ccc(N)nc1	0.0035	0.8	239											
Cc1cc(/C=C/C#N)cc(C)c1Oc1nc(Nc2ccc(N3CCN(S(C)(=O)=O)CC3)c(C#N)c2)ncc1-c1cnc(N)nc1	0.0072	38.6	5390	0.027	0.0067	0.042	> 38.6	0.039	0.096	0.28				
Cc1cc(/C=C/C#N)cc(C)c1Oc1nc(Nc2ccc(N3CCS(=O)(=O)CC3)c(C#N)c2)ncc1-c1cncnc1	0.0091	2.4	258											
Cc1cc(/C=C/C#N)cc(C)c1Oc1nc(Nc2ccc(N3CCS(=O)(=O)CC3)c(C#N)c2)ncc1-c1cccnc1	0.016	21.8	1340	0.054	0.0099	0.14	0.72	0.05	0.6	0.99	0.49			
Cc1cc(/C=C/C#N)cc(C)c1Oc1nc(Nc2ccc(N3CCS(=O)(=O)CC3)c(F)c2)ncc1-c1ccc(F)nc1	0.96	> 212	> 221											
O=C1Nc2ccc(Cl)cc2[C@@](C#CC2CC2)(C(F)(F)F)O1 [EFAVIRENZ]	0.0052	> 6.4			0.078	0.0098	0.28			0.373				
Cc1cc(C#N)cc(C)c1Oc1nc(Nc2ccc(C#N)cc2)nc(N)c1Br [ETRAVIRINE]	0.0038	> 4.6		0.0065			0.023	0.009	0.0085	0.052				
Cc1ccnc2c1NC(=O)c1cccnc1N2C1CC1 [NEVIRAPINE]		> 15		1.76	5.74	6.59	> 1.5	0.223	10.3	> 15				
